# Reference: patent US20240116893A1, “Compounds for Disease Treatment” (Duke University, priority 2021, published 2024)
# Entries after “also recorded” stand apart in the source; their conditions may differ. Like-named read-outs stand apart in the source and are kept apart here.
# Tests used:
# IRAK4 = IRAK4 (Homo sapiens (Human), UniProt Q9NWZ3); test: IRAK4 kinase inhibition IC50 (TABLE 1; FIG. 1B selectivity screening); assay type: biochemical; conditions: for Ratio IC50 (IRAK4)/IC50 (TAK1): selectivity for TAK1 over IRAK4
# [1] = Pharmacokinetics after oral gavage in rats (plasma and urine, LC-MS); assay type: in vivo, Sprague Dawley rats
# Description: All serum/drug samples were frozen and stored at −80° C., unless otherwise specified. […] This internal standard solution was used for tissue homogenization. LC-MS analysis was performed at the Duke Proteomics and Metabolomics Core Facility.
# TAK1 [2] = target: T1, TAK1 (Homo sapiens (Human), UniProt O43318); test: TAK1 kinase inhibition IC50 (TABLE 1; FIG. 1B selectivity screening); assay type: biochemical
# Target sequence in this assay (O43318 31-303): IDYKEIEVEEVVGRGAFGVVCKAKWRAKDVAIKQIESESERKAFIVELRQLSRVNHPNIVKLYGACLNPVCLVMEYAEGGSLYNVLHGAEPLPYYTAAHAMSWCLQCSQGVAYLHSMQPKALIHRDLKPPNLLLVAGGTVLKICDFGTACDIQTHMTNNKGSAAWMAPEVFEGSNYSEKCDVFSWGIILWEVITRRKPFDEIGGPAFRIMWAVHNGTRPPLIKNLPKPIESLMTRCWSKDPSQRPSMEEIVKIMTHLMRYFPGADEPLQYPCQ
# Target sequence in this assay (Q15750 468-497 partner): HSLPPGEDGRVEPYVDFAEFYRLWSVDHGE
# THP-1 human macrophages = test: Cytokine expression in THP-1 macrophages stimulated with LPS and IFNγ; assay type: cell-based; conditions: for attenuation (reduction) of TNF expression: 10 μM, LPS and IFNγ, FIG. 1C
# Description: THP-1 cells were treated with 100 nM phorbol 12-myristate 13-acetate (PMA) for 72 hours in RPMI 1640X media. Cells were rested in PMA free media 24 hours prior to treatments. LPS (10 ng/mL) was used for pro-inflammatory stimulation.
# THP-1 cells were treated with 10 μM of designated drug or vehicle (DMSO) and 24 hours after treatment, supernatant was added to Human Cytokine XL proteome array (R&D Systems) in accordance with manufacturer protocol. Chemiluminescence was used to visualize protein quantities.
# To evaluate the anti-inflammatory effects of compounds 3, 5, and 6, THP-1 human macrophages were stimulated with LPS and IFNγ in the presence of TAK1 inhibitor (10 μM) or vehicle.
# Water solubility = assay type: physicochemical
# ULK2 [3] = target: T2, ULK2 (Homo sapiens (Human), UniProt Q8IYT8); test: Kinase panel of 146 human kinases at 10 μM; assay type: biochemical
# Text: (§1) Kinome selectivity of compound 5 was further screened using a kinase panel of 146 human kinases representing all gene family members within the human kinome.
# IRAK1 [4] = target: T3, IRAK1 (Homo sapiens (Human), UniProt P51617); test: Kinase panel of 146 human kinases at 10 μM; assay type: biochemical
# Text: as §1
# MAP4K5 [5] = target: T4, MAP4K5 (Homo sapiens (Human), UniProt Q9Y4K4); test: Kinase panel of 146 human kinases at 10 μM; assay type: biochemical
# Text: as §1
# TAK1 [6] = target: T1, TAK1; test: Kinase panel of 146 human kinases at 10 μM; assay type: biochemical
# Text: as §1
# Target sequence in this assay (O43318 1-303): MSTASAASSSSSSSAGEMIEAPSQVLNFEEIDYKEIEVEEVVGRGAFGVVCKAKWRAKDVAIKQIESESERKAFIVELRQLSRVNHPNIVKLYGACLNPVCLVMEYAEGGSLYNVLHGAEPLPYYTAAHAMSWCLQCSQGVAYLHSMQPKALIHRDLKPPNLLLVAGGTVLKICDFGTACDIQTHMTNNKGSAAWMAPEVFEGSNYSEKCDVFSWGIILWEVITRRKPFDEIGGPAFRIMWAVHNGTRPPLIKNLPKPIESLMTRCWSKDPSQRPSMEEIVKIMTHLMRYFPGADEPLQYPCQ
# Target sequence in this assay (Q15750 437-504 partner): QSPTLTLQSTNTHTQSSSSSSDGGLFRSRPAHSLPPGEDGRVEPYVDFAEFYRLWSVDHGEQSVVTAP
# CK1γ2 = CK1γ2 (Homo sapiens (Human), UniProt P78368); test: Kinase panel of 146 human kinases at 10 μM; assay type: biochemical
# Text: as §1
# NUAK1 = NUAK1 (Homo sapiens (Human), UniProt O60285); test: Kinase panel of 146 human kinases at 10 μM; assay type: biochemical
# Text: as §1
# NUAK = NUAK (Homo sapiens (Human), UniProt O60285); test: Dose-response of top 10 kinases (FIG. 1A); assay type: biochemical; conditions: read-out: half maximal inhibitory concentration (IC50) NUAK
# Description: (§2) Next, dose-response experiments of the top 10 kinases inhibited by compound 5 in the initial kinome screen were conducted as described in EXAMPLE 5. […] The top 10 kinases were selected in an initial kinome screen.
# ULK2 [7] = target: T2, ULK2; test: Dose-response of top 10 kinases (FIG. 1A); assay type: biochemical; conditions: read-out: half maximal inhibitory concentration (IC50) ULK2
# Description: as §2
# CSNK1G2 = CSNK1G2 (Homo sapiens (Human), UniProt P78368); test: Dose-response of top 10 kinases (FIG. 1A); assay type: biochemical; conditions: read-out: half maximal inhibitory concentration (IC50) CSNK1G2
# Description: as §2
# IRAK1 [8] = target: T3, IRAK1; test: Dose-response of top 10 kinases (FIG. 1A); assay type: biochemical; conditions: read-out: half maximal inhibitory concentration (IC50) IRAK1
# Description: as §2
# MAP4K5 [9] = target: T4, MAP4K5; test: Dose-response of top 10 kinases (FIG. 1A); assay type: biochemical; conditions: read-out: half maximal inhibitory concentration (IC50) MAP4K5
# Description: as §2
# TAK1 [10] = target: T1, TAK1; test: Dose-response of top 10 kinases (FIG. 1A); assay type: biochemical; conditions: read-out: half maximal inhibitory concentration (IC50) TAK1
# Description: as §2
# Target sequence in this assay (O43318 1-303): as the sequence (O43318 1-303) above
# Target sequence in this assay (Q15750 437-504 partner): as the sequence (Q15750 437-504 partner) above
# MLK1 = MLK1 (Homo sapiens (Human), UniProt P80192); test: Dose-response of top 10 kinases (FIG. 1A); assay type: biochemical; conditions: read-out: half maximal inhibitory concentration (IC50) MLK1
# Description: as §2
# GCK = GCK (Homo sapiens (Human), UniProt Q12851); test: Dose-response of top 10 kinases (FIG. 1A); assay type: biochemical; conditions: read-out: half maximal inhibitory concentration (IC50) GCK
# Description: as §2
# CLK2 = CLK2 (Homo sapiens (Human), UniProt P49760); test: Dose-response of top 10 kinases (FIG. 1A); assay type: biochemical; conditions: read-out: half maximal inhibitory concentration (IC50) CLK2
# Description: as §2
# CAMKKβ-1 = CAMKKβ-1 (Homo sapiens (Human), UniProt Q96RR4); test: Dose-response of top 10 kinases (FIG. 1A); assay type: biochemical; conditions: read-out: half maximal inhibitory concentration (IC50) CAMKKβ-1
# Description: as §2
# [11] = system: Enbrel® refractory arthritis; test: Enbrel refractory CIA rheumatoid arthritis mouse model; assay type: in vivo, mice; conditions: twice daily PO after etanercept days 21-30; n=6; FIG. 4E
# Text: To that end, a recently developed pre-clinical model of Enbrel® refractory arthritis was utilized, in which mice develop neutralizing antibodies towards Enbrel® causing disease relapse mirroring patient populations. Using this model, mice (n=6) were initially treated with Enbrel® on days 21-30 until loss of efficacy (determined by an arthritic score of 1.5) around study days 29 to 31 showing the development of neutralizing antibodies and disease progression. At this point, a first treatment group was switched to once daily vehicle (DMSO, PO) from day 30 to day 36, and a second treatment group was switched to twice daily compound 5 (PO).
# [12] = system: Collagen Type II Induced Arthritis (CIA); test: CIA mouse model of inflammatory arthritis; assay type: in vivo, DBA/1 mice; conditions: for reduction of clinical arthritis score: QD, FIG. 5A; for reduction in disease clinical score (AUC): FIG. 5B
# [13] = Maximum tolerated dose / 14-day oral toxicology study; assay type: in vivo; conditions: 5, 30, 50 and 100 mg/kg PO once daily, 14 days
# Description: Maximum tolerated dose studies and toxicology of compound 5 further established the safety and tolerance of this compound. Here, mice were treated daily with compound 5 (PO) at 5, 30, 50 and 100 mg/kg dosing for […] consecutive days. Daily body weights were taken as well as clinical observations.
# Next, and as further described in EXAMPLE 9, a 14-day toxicology study of orally administered compound 5 in CD-1 mice (n=4) was conducted, using daily oral doses of 5, 30, 50 and 100 mg/kg of compound 5. In this study, the change in body weight from baseline as well as the weight of various organs were measured.
# [14] = Bioavailability of compound 1 (takinib); conditions: in vivo
# [15] = 50 mg/kg IP, all joints, FIG. 3E
# IRAK4, sequence (Q9NWZ3 whole entry): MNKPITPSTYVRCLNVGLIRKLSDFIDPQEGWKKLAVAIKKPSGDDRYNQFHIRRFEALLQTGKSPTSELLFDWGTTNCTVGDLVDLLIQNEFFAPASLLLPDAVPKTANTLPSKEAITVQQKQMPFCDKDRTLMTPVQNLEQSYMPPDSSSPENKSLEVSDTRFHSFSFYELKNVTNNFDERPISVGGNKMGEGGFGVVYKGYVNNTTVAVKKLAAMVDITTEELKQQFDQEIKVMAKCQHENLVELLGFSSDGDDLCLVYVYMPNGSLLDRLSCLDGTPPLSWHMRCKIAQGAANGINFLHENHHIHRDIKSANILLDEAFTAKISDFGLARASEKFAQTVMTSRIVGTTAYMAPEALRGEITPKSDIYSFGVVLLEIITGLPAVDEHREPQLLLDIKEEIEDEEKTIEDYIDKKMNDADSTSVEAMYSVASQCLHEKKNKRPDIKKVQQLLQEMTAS
# T4 sequence (Q9Y4K4 whole entry): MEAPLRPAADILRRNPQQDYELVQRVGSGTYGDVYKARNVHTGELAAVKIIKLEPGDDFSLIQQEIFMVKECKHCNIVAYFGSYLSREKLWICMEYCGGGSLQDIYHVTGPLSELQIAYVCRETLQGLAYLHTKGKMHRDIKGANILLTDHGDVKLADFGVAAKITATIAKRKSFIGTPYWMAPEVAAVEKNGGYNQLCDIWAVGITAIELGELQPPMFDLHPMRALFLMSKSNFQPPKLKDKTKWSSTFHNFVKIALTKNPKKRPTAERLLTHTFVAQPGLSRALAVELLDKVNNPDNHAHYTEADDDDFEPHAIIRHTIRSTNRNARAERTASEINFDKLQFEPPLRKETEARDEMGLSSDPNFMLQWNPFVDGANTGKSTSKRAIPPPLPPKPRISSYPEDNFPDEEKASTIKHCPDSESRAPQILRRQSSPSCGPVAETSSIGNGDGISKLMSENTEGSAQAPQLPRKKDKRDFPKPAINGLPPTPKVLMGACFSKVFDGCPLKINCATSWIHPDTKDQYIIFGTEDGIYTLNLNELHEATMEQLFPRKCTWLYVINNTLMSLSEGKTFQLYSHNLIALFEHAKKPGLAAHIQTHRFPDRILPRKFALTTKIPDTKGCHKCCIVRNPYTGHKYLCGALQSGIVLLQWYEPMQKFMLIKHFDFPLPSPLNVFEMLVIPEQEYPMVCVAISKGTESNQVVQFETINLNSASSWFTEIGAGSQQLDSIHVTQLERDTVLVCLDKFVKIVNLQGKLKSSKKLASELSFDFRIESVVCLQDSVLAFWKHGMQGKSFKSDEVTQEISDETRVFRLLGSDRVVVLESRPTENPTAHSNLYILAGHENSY
# T3 sequence (P51617 whole entry): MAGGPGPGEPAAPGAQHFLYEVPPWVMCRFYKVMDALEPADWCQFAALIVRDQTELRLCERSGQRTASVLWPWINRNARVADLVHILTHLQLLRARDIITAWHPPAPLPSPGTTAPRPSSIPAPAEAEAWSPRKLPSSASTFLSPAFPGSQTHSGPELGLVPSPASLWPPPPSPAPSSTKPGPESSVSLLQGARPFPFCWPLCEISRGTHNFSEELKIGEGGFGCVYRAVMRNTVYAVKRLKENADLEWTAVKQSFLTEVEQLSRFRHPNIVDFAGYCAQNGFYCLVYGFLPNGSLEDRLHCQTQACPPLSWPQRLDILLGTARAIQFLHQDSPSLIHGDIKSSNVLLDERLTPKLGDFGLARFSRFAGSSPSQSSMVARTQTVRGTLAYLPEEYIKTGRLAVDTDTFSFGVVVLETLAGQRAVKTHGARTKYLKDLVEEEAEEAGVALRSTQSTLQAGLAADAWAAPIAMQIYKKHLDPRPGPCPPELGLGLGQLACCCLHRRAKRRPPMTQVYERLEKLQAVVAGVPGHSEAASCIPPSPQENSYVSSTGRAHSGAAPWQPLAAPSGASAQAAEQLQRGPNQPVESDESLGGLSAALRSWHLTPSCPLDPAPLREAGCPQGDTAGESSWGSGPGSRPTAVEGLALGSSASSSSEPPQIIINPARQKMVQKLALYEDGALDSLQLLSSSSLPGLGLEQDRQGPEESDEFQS
# T2 sequence (Q8IYT8 whole entry): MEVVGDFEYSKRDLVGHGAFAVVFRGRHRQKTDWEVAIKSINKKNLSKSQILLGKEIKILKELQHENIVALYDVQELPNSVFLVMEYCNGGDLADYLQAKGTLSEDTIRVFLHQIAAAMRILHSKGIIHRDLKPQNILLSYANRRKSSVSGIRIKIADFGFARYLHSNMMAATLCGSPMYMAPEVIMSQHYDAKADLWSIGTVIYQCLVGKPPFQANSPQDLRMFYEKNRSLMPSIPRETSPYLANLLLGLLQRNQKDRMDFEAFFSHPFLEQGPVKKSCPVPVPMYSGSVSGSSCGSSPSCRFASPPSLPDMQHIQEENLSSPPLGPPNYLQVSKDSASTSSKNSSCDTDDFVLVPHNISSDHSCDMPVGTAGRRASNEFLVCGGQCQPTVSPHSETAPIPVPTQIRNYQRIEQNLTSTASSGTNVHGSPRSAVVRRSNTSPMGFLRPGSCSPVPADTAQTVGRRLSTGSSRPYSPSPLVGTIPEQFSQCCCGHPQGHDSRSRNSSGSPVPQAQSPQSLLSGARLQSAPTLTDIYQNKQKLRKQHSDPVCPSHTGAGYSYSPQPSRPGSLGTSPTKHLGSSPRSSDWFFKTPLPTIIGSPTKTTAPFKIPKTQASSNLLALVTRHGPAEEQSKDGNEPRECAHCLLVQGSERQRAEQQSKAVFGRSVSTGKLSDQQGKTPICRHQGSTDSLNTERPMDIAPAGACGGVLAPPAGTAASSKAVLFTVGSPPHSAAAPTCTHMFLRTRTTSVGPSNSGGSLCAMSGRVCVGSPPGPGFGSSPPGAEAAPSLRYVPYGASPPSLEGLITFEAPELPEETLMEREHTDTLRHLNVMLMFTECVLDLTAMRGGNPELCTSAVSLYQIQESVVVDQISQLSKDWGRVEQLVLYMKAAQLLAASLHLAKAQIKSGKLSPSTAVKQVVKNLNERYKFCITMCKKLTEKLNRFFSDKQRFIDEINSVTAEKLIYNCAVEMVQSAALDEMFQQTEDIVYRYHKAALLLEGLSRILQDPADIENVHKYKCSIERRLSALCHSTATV
# CLK2, sequence (P49760 whole entry): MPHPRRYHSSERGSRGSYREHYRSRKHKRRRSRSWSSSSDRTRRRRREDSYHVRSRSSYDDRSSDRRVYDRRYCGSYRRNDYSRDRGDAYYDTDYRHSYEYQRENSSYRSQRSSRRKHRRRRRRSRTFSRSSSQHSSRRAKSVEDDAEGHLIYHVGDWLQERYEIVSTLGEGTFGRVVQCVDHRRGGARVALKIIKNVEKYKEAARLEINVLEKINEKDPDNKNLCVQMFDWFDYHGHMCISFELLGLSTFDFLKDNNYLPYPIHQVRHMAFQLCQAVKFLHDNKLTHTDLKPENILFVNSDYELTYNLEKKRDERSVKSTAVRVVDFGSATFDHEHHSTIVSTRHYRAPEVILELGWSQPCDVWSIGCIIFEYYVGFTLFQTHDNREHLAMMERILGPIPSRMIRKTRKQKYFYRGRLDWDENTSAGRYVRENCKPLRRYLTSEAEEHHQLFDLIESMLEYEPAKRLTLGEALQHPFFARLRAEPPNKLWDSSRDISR
# CAMKKβ-1, sequence (Q96RR4 whole entry): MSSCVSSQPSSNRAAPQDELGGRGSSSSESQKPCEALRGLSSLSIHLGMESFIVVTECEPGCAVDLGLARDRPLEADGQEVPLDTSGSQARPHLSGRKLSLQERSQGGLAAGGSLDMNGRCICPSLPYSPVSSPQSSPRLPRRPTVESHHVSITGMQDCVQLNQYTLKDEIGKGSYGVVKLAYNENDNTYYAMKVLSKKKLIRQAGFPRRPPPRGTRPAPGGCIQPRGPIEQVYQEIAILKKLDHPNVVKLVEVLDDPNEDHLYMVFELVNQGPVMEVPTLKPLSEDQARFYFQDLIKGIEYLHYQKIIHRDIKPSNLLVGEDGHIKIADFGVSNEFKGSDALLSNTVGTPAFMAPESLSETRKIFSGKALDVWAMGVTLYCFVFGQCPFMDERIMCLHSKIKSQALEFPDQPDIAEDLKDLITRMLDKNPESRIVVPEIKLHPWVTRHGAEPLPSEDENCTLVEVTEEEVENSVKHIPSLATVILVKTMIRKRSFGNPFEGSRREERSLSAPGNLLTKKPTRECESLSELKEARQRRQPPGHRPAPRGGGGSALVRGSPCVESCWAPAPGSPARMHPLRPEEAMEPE
molecule,measurement,setting,value
NC(=O)c1cccc(C(=O)/N=c2\[nH]c3cc(CN4CCCCC4)ccc3n2C2CCC(O)CC2)c1 (stereo not shown) [Compound 3],IC50,IRAK4; read-out: IC50 (IRAK4),8.5 nM
same,Ratio IC50 (IRAK4)/IC50 (TAK1),IRAK4,3
same,urine levels,[1]; 50 mg/kg oral gavage,M urine levels up to 24 hours post gavage
same,plasma levels across all timepoints,"[1]; 50 mg/kg oral gavage, 1-24 hours",low nM
same,IC50,TAK1 [2]; read-out: IC50 (TAK1),2.8 nM
same,attenuation (reduction) of TNF expression,THP-1 human macrophages,2.5 fold
CCCn1/c(=N/C(=O)c2cccc(C(N)=O)c2)[nH]c2ccc(CO)cc21 [Compound 4],IC50,IRAK4; read-out: IC50 (IRAK4),48 nM
same,Ratio IC50 (IRAK4)/IC50 (TAK1),IRAK4,18
same,IC50,TAK1 [2]; read-out: IC50 (TAK1),2.6 nM
CCCn1/c(=N/C(=O)c2cccc(C(N)=O)c2)[nH]c2ccc(CN3CCCCC3)cc21 [Compound 5],water solubility,Water solubility,good
same,IC50,IRAK4; read-out: IC50 (IRAK4),2500 nM
same,IC50,"IRAK4; selectivity screening, FIG. 1B, read-out: IRAK4 inhibition IC50",2510 nM
same,enzymatic activity of ULK2,ULK2 [3],< 15 % enzymatic activity
same,enzymatic activity of IRAK1,IRAK1 [4],< 15 % enzymatic activity
same,enzymatic activity of MAP4K5,MAP4K5 [5],< 15 % enzymatic activity
same,enzymatic activity of TAK1,TAK1 [6],< 15 % enzymatic activity
same,enzymatic activity of CK1γ2,CK1γ2,< 15 % enzymatic activity
same,enzymatic activity of NUAK1,NUAK1,< 15 % enzymatic activity
same,IC50,NUAK,270 nM
same,IC50,ULK2 [7],63 nM
same,IC50,CSNK1G2,809 nM
same,IC50,IRAK1 [8],264 nM
same,IC50,MAP4K5 [9],124 nM
same,IC50,TAK1 [10],8 nM
same,IC50,MLK1,5590 nM
same,IC50,GCK,33 nM
same,IC50,CLK2,29 nM
same,IC50,CAMKKβ-1,1280 nM
same,reduction of arthritis score vs etanercept-refractory animals switched to vehicle,[11],40%
same,reduction of clinical arthritis score,"[12]; 10 mg/kg, PO",18%
same,reduction of clinical arthritis score,"[12]; 30 mg/kg, PO",35%
same,reduction of AUC of clinical arthritis scores vs disease control,"[12]; 50 mg/kg IP, QD days 21-26, Q2D days 27-36, FIG. 3C",85%
same,disease incidence on day 36,"[12]; 50 mg/kg IP, QD days 21-26, Q2D days 27-36, n=12",75%
same,reduction of bone resorption score vs vehicle,[12]; [15],87%
same,reduction of cartilage damage score vs vehicle,[12]; [15],76%
same,reduction of inflammation score vs vehicle,[12]; [15],62%
same,reduction of pannus score vs vehicle,[12]; [15],86%
same,reduction of periosteal bone formation score vs vehicle,[12]; [15],93%
same,reduction in clinical arthritis scores vs vehicle,"[12]; 50 mg/kg, IP, once daily, FIG. 4A",85%
same,reduction in disease clinical score (AUC),"[12]; IP dosing (25 mg/kg, QD)",36%
same,reduction in disease clinical score (AUC),[12]; oral dosing (PO),35%
same,time of Cmax post gavage,[1]; 50 mg/kg oral gavage,2 h
same,time post gavage up to which M (μM) plasma concentration was shown,[1]; 50 mg/kg oral gavage,8 to 12 h
same,peak in urine concentration,"[1]; 50 mg/kg oral gavage, at 12 hours",100 µM
same,Cmax,"[1]; male, Sprague Dawley, rat, plasma, 50 mg/kg oral gavage",1890 nM
same,oral bioavailability,"[1]; rat, in vivo, po",high
same,IC50,"TAK1 [2]; selectivity screening, FIG. 1B, read-out: TAK1 inhibition IC50",2.5 nM
same,blood chemistries or complete blood counts,[13],no significant differences
same,body weight change,[13],no significant weight loss
same,morbidity,[13],no signs of morbidity
same,"relative organ weights (liver, heart, thymus, kidneys, brain, spleen)",[13],no significant weight loss; also recorded: did not cause any significant or dose-dependent changes; also recorded: not cause a significant or dose-dependent change
same,attenuation (reduction) of TNF expression,THP-1 human macrophages,11 fold
NC(=O)c1cccc(C(=O)/N=c2\[nH]c3ccc(CO)cc3n2[C@H]2CC[C@H](O)CC2)c1 [Compound 7],IC50,IRAK4,8.2 nM
same,Ratio IC50 (IRAK4)/IC50 (TAK1),IRAK4,5
same,IC50,TAK1 [2]; read-out: IC50 (TAK1),1.6 nM
"CN(Cc1cnc2nc(N)nc(N)c2n1)c1ccc(C(=O)N[C@@H](CCC(=O)O)C(=O)O)cc1 [methotrexate, reference compound]",reduction in clinical arthritis scores vs vehicle,"[12]; 1 mg/kg, PO, once daily, FIG. 4C",72%
"C[C@@H]1CCN(C(=O)CC#N)C[C@@H]1N(C)c1ncnc2[nH]ccc12 [tofacitinib, reference compound]",reduction in clinical arthritis scores vs vehicle,"[12]; 30 mg/kg, PO, twice daily (BID), FIG. 4D",50%
same,TNF secretion,"THP-1 human macrophages; LPS and IFNγ challenge, FIG. 1D",minimal to no TNF reduction
etanercept,reduction in clinical arthritis scores vs vehicle,"[12]; 10 mg/kg, IP, once daily, FIG. 4B",57%
"takinib [Compound 1, reference compound]",affinity for IRAK4 less than TAK1,IRAK4,~12 fold
same,IC50,IRAK4; read-out: IC50 (IRAK4),120 nM
same,Ratio IC50 (IRAK4)/IC50 (TAK1),IRAK4,13
same,IC50,TAK1 [2]; read-out: IC50 (TAK1),9 nM
same,bioavailability,[14],low
